Test results published in paper PMC10989899, “MomL inhibits bacterial antibiotic resistance through the starvation stringent response pathway” (mLife, 2022).

Assays:
[1] = target: T1, LasR (Pseudomonas aeruginosa, UniProt P25084); assay: EMSA, LasR binding to relA promoter DNA; assay type: biochemical; details: AHL required for DNA binding; the AHL added in EMSA is not named, 3-O-C12-HSL is that of LasR expression; 37 °C
T1 construct: recombinant, pET28a, E. coli BL21(DE3), Ni-NTA

[2] = system: RpoS (Pseudomonas aeruginosa PAO1); assay: SPR; details: binding buffer not stated, SPR: PBS, temperature not stated

T1 sequence (P25084 whole entry): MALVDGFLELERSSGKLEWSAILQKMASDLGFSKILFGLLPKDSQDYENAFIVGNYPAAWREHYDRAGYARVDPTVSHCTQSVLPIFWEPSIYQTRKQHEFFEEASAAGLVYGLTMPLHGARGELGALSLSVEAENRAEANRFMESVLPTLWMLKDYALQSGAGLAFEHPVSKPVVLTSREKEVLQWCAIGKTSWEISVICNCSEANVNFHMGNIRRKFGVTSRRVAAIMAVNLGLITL

Molecule	EMSA, LasR binding to relA promoter DNA [1]	Kd [2] [nM]
CCCCCCCCCC(=O)CC(=O)N[C@H]1CCOC1=O [3-O-C12-HSL]	This binding depended on the presence of AHLs.	–
H2-T6SS promoter DNA (SPR)	–	87.6
